Source: US20030199671A1, “Binding molecules for Fc-region polypeptides” (priority 2001, published 2003)
Blank lines part the entries; values can stand above or below the compound they belong to. Positions of bridges follow the written chain, without caps; N, C: chain ends. Residues, ends and D or L forms follow the SMILES beside them.

What was measured:
[1] = biological target: T1, IgG3 (Homo sapiens, UniProt P01860); assay: Competition between synthetic peptides and Protein A for Fc binding; design: the individual human plasma IgG isoforms: IgG1, IgG2, IgG3, or IgG4; purchased Calbiochem; host or cells: human plasma; key: NB: no detected binding.; ?: partial decrease in anisotropy with added competitor; conditions: 5 mg/ml protein A
Experimental: (§1) Cross-competition studies between peptides were performed using 20 nM fluorescein-labeled peptide and 1-2 μM IgG1, IgG2, IgG3, or IgG4 in the presence and absence of a maximum of 100 μM unlabeled peptide or 5 mg/ml protein A.
(§2) This is consistent with the fact that Protein A is known not to bind human IgG3.

[2] = biological target: T2, IgG4 (Homo sapiens, UniProt P01861); assay: as above; design: the individual human plasma IgG isoforms: IgG1, IgG2, IgG3, or IgG4; purchased Calbiochem; host or cells: human plasma; key: NB: no detected binding.; ?: partial decrease in anisotropy with added competitor; conditions: 5 mg/ml protein A
Experimental: as §1, §2

[3] = test system: goat IgG; type: binding; conditions: Table 11; unfractionated IgG
Procedure, shortened: (§3)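 Species specificity was assessed by static binding of unfractionated IgG to peptide resin in pH 7.2 phosphate or pH 7.5 Tris buffer with 0.01% Tween 20. Bound fraction was calculated from A280 of unbound target.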

[4] = biological target: T3, human IgG2 (Homo sapiens, UniProt P01859); type: binding
T3 construct: all human subtypes derived from myeloma patients; purchased Calbiochem 400122; host or cells: myeloma patients
Procedure, shortened: (§4)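 Read-out is A280 of unbound IgG (1.4 mg/ml extinction coefficient), with percent bound derived against non-filtered or negative controls. Targets were incubated with immobilized peptides in PBST or TBST for 1-1.5 h at room temperature. Hydrolyzed Sepharose and immobilized Protein A serve as negative and positive controls.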

[5] = test system: mouse IgG; type: binding; conditions: Table 11; unfractionated IgG
Procedure, shortened: as §3

[6] = biological target: T4, human IgG1 (Homo sapiens, UniProt P01857); type: binding
T4 construct: all human subtypes derived from myeloma patients; purchased Calbiochem 400120; host or cells: myeloma patients
Procedure, shortened: as §4

[7] = test system: bovine IgG; type: binding; conditions: Table 11; unfractionated IgG
Procedure, shortened: as §3

[8] = test system: human IgG; type: binding
Procedure, shortened: as §3

[9] = biological target: T5, human plasma IgG2 (Homo sapiens, UniProt P01859); assay: Fluorescence anisotropy binding, fluorescein-labeled peptide
T5 construct: the individual human plasma IgG isoforms: IgG1, IgG2, IgG3, or IgG4; purchased Calbiochem; host or cells: human plasma
Experimental: (§5) All measurements were performed in 384 well microplates with 20 nM fluorescein-labeled peptide and various concentrations of the IgG isoform in a volume of between 10 and 20 μl using a Tecan Polarion fluorescence polarization plate reader. All binding buffers included 0.01% (v/v) Tween 20 to prevent peptide adsorption to the microplate. The binding mixture was equilibrated for 10 minutes in the microplate at 30° C. prior to performing the measurement.
(§6) Peptides were synthesized, fluorescein-labeled and HPLC purified as described above. Binding studies were performed using either a mixture of human plasma IgG isoforms (the Fc protein) or the individual human plasma IgG isoforms: IgG1, IgG2, IgG3, or IgG4.
(§7) Measurements were performed in 384-well microplates with 2 nM fluorescein-labeled peptide and a varied concentration of the IgG isoform target in a volume of 10 μl using a Tecan Polarion fluorescence polarization plate reader. The Fc binding buffer was 50 mM Tris-HCl, 200 mM NaCl, pH 8.0, 0.01% Tween 20. The IgG binding buffer was PBS with 0.01% Tween 20. The binding mixtures were equilibrated for 10 minutes in the microplate at 30° C. prior to performing the measurements.

[10] = biological target: T6, human plasma IgG1 (Homo sapiens, UniProt P01857); assay: as above
T6 construct: the individual human plasma IgG isoforms: IgG1, IgG2, IgG3, or IgG4; purchased Calbiochem; host or cells: human plasma
Experimental: as §5, §6, §7

[11] = biological target: T1, IgG3; type: binding; design: all human subtypes derived from myeloma patients; purchased Calbiochem 400124; host or cells: myeloma patients
Procedure, shortened: as §4

[12] = biological target: Fc (mixture of human plasma IgG isoforms); assay: Fluorescence anisotropy binding, fluorescein-labeled peptide; conditions: pH 8.0, 0.05 M Tris-HCl, 0.2 M NaCl
Experimental: (§8) Peptides were synthesized by BACHEM Bioscience, Inc., (King of Prussia, Pa.), fluorescein labeled and purified by HPLC. Binding studies were performed using either a mixture of human plasma IgG isoforms (the Fc target) or the individual human plasma IgG isoforms: IgG1, IgG2, IgG3, or IgG4. All Fc target proteins were obtained from Calbiochem.
as §5, §6, §7

[13] = biological target: T7, human plasma IgG4 (Homo sapiens, UniProt P01861); assay: as above
T7 construct: the individual human plasma IgG isoforms: IgG1, IgG2, IgG3, or IgG4; purchased Calbiochem; host or cells: human plasma
Experimental: as §8, §5, §6, §7

[14] = biological target: T8, human plasma IgG3 (Homo sapiens, UniProt P01860); assay: as above
T8 construct: the individual human plasma IgG isoforms: IgG1, IgG2, IgG3, or IgG4; purchased Calbiochem; host or cells: human plasma
Experimental: as §8, §5, §6, §7

[15] = biological target: T2, IgG4; type: binding; design: all human subtypes derived from myeloma patients; purchased Calbiochem 400126; host or cells: myeloma patients
Procedure, shortened: as §4

[16] = Solubility in aqueous coupling buffer; type: physicochemical; conditions: aqueous coupling conditions
Excerpt: The varying degree of binding may be due to, in part, to lower coupling efficiencies as a result of varying degrees of solubility in aqueous coupling conditions. […] However, coupling efficiencies of all nine DX253 variants monitored by rp-HPLC was high and averaged>85%. Actual ligand densities were not determined.

[17] = cited from earlier work
[18] = Table 9, immobilized peptide, 5.0 mg/ml resin load
[19] = pH 9.3, 0.01 M sodium bicarbonate

Competition between labeled peptide and Protein A, IgG3 [1]: ?
Competition between labeled peptide and Protein A, IgG4 [2]: NB
% IgG Capture - Batch Binding, Goat IgG [3]: 0%
% IgG Capture - Batch Binding, Human IgG2 [4, 18]: 16%
% IgG Capture - Batch Binding, Mouse IgG [5]: 2%
% IgG Capture - Batch Binding, Human IgG1 [6, 18]: 28%
% IgG Capture - Batch Binding, Bovine IgG [7]: 0%
% IgG Capture - Batch Binding, Human IgG ([8]; Table 11, unfractionated IgG): 16%
Kd ([9]; pH 5.7, 0.01 M Tris-acetate): > 1 µM
Kd ([9]; pH 7.4, 0.01 M Tris-HCl): 2 ± 0.7 µM
Kd ([9]; pH 7.4, PBS, […] NaCl): 1.1 ± 0.3 µM
Kd [9, 19]: 2 ± 2.7 µM
Kd ([10]; pH 5.7, 0.01 M Tris-acetate, 0 M NaCl): < 0.1 µM
Kd ([10]; pH 7.4, 0.01 M Tris-HCl): < 2 µM
Kd ([10]; pH 7.4, PBS, […] NaCl): 0.4 ± 0.2 µM
Kd [10, 19]: 0.4 ± 0.4 µM
% IgG Capture - Batch Binding, Human IgG3 [11, 18]: 36%
Kd [12]: 1.6 ± 0.6 µM
Kd ([13]; pH 5.7, 0.01 M Tris-acetate): > 10 µM
Kd ([13]; pH 7.4, PBS, […] NaCl): > 10 µM
Kd [13, 19]: > 10 µM
Kd ([14]; pH 5.7, 0.01 M Tris-acetate): 0.3 ± 0.3 µM
Kd ([14]; pH 7.4, 0.01 M Tris-HCl): > 10 µM
Kd [14, 19]: > 10 µM
% IgG Capture - Batch Binding, Human IgG4 [15, 18]: 6%
Compound: CC(=O)N[C@@H](C)C(=O)NCC(=O)N[C@@H](Cc1ccc(O)cc1)C(=O)N[C@@H](Cc1ccc(O)cc1)C(=O)N[C@@H](Cc1c[nH]c2ccccc12)C(=O)N[C@H]1CSSC[C@@H](C(=O)N2CCC[C@H]2C(=O)N[C@@H](CC(=O)O)C(=O)N[C@@H](CCC(N)=O)C(=O)NCC(=O)N[C@H](C(=O)N2CCC[C@H]2C(=O)NCC(=O)N2CCC[C@H]2C(=O)N[C@@H](CCC(=O)O)C(=O)NCC(=O)NCC(=O)NCC(=O)N[C@@H](CCCCN)C(N)=O)[C@@H](C)O)NC(=O)[C@H](CC(C)C)NC(=O)CNC(=O)[C@H](Cc2c[nH]c3ccccc23)NC(=O)[C@H](Cc2ccc(O)cc2)NC(=O)[C@H](CC(N)=O)NC1=O [DX254]

Batch Binding (% Capture of Total Load) hIgG2 ([4]; peptide immobilized on NHS activated sepharose 4 fast flow, target ligand density 2.0 μmole/ml, batch filterplate, hIgG2): 76%
Batch Binding (% Capture of Total Load) hIgG1 ([6]; peptide immobilized on NHS activated sepharose 4 fast flow, target ligand density 2.0 μmole/ml, batch filterplate, hIgG1): 83%
Binding properties / profile relative to parent peptide ([8]; batch filterplate, human IgG and subtypes): almost identical to those of DX253
Batch Binding (% Capture of Total Load) hIgG ([8]; peptide immobilized on NHS activated sepharose 4 fast flow, target ligand density 2.0 μmole/ml, batch filterplate, hIgG): 74%
Solubility in aqueous coupling buffer [16]: not fully soluble
Batch Binding (% Capture of Total Load) hIgG3 ([11]; peptide immobilized on NHS activated sepharose 4 fast flow, target ligand density 2.0 μmole/ml, batch filterplate, hIgG3): 0%
Batch Binding (% Capture of Total Load) hIgG4 ([15]; peptide immobilized on NHS activated sepharose 4 fast flow, target ligand density 2.0 μmole/ml, batch filterplate, hIgG4): 47%
Compound: CC(=O)N[C@H]1CSSC[C@@H](C(=O)N[C@@H](C)C(=O)NCC(=O)N[C@@H](Cc2c[nH]cn2)C(=O)N[C@@H](CCC(=O)O)C(=O)N2CCC[C@H]2C(=O)NCC(=O)N2CCC[C@H]2C(=O)N[C@@H](CCC(=O)O)C(=O)NCC(=O)NCC(=O)NCC(=O)N[C@@H](CCCCN)C(N)=O)NC(=O)[C@H](Cc2c[nH]c3ccccc23)NC(=O)[C@H](C(C)C)NC(=O)[C@H](CC(C)C)NC(=O)[C@H](C)NC(=O)CNC(=O)[C@H](CO)NC(=O)[C@H](Cc2c[nH]c3ccccc23)NC(=O)[C@H](CC(=O)O)NC(=O)[C@H](CCCNC(=N)N)NC(=O)[C@H](CO)NC1=O [DX1147] (Ac-CSRDWSGALVWCAGHEPGPEGGGK-NH2; disulfide 1-12)

Compound: O=C(O)c1ccccc1-c1c2cc(F)c(=O)cc-2oc2cc(O)c(F)cc12 [Oregon Green]
pKa of the carboxylic acid group [17]: 4.7
